Experimental data reported in US20020090380A1, “Novel formulation comprising thymol useful in the treatment of drug resistant bacterial infections” (priority 2000, published 2002).
Read-outs that look alike come from different tables or passages of the source.

Legend:
Nal^R mutants of E. coli = type: cell-based, Escherichia coli; settings: 5 μg/ml
E. coli CA 8000 (WT) = type: cell-based, Escherichia coli
[1] = system: lomefloxacin resistant cells of E. coli; type: cell-based, Escherichia coli; settings: 1.5 μg/ml
[2] = system: Lom^R mutants of Mycobacterium smegmatis; type: cell-based; settings: Lom^R mutants isolated in medium with 20 μg/ml lomefloxacin
[3] = system: Mycobacterium smegmetis wild type; type: cell-based

For `CCn1cc(C(=O)O)c(=O)c2cc(F)c(N3CCNC(C)C3)c(F)c21` (stereo not shown) [Lomefloxacin, lomefloxacin], the “Growth in poison agar medium” value (Nal^R mutants of E. coli; CAN 101) was “−”, the “Growth in poison agar medium” value (Nal^R mutants of E. coli; CAN 102) was “−” and the “Growth in poison agar medium” value (Nal^R mutants of E. coli; CAN 103) was “−”. The “Growth in poison agar medium” value (Nal^R mutants of E. coli; CAN 104) was “−”, the “Growth in poison agar medium” value (Nal^R mutants of E. coli; CAN 105) was “−” and the “Growth in poison agar medium” value (Nal^R mutants of E. coli; CAN 106) was “−”. For the same compound, the “Growth in poison agar medium” value (Nal^R mutants of E. coli; CAN 107) was “−”, the “Growth in poison agar medium” value (Nal^R mutants of E. coli; CAN 108) was “−” and the “Growth in poison agar medium” value (Nal^R mutants of E. coli; CAN 109) was “−”. The “Growth in poison agar medium” value (Nal^R mutants of E. coli; CAN 110) was “−”, the “Growth in poison agar medium” value (Nal^R mutants of E. coli; CAN 111) was “−” and the “Growth in poison agar medium” value (Nal^R mutants of E. coli; CAN 112) was “−”. For the same compound, the “Growth in poison agar medium” value (Nal^R mutants of E. coli; CAN 113) was “−”, the “Growth in poison agar medium” value (Nal^R mutants of E. coli; CAN 114) was “−” and the “Growth in poison agar medium” value (Nal^R mutants of E. coli; CAN 115) was “−”. The “Growth in poison agar medium” value (Nal^R mutants of E. coli; CAN 116) was “−”, the “Growth in poison agar medium” value (Nal^R mutants of E. coli; CAN 117) was “−” and the “Growth in poison agar medium” value (Nal^R mutants of E. coli; CAN 118) was “−”. The “Growth in poison agar medium” value (Nal^R mutants of E. coli; CAN 119) was “−”, the “Growth in poison agar medium” value (Nal^R mutants of E. coli; CAN 120) was “−” and the “Growth in poison agar medium” value (Nal^R mutants of E. coli; CAN 121) was “−”. The “Growth in poison agar medium” value (Nal^R mutants of E. coli; CAN 122) was “−”, the “Growth in poison agar medium” value (Nal^R mutants of E. coli; CAN 123) was “−” and the “Growth in poison agar medium” value (Nal^R mutants of E. coli; CAN 124) was “−”. For the same compound, the “Growth in poison agar medium” value (Nal^R mutants of E. coli; CAN 125) was “−”, the “Growth in poison agar medium” value (Nal^R mutants of E. coli; CAN 126) was “−” and the “Growth in poison agar medium” value (E. coli CA 8000 (WT)) was “−”. The “Growth in poison agar medium” value ([1]; CAL 101) was “+”, the “Growth in poison agar medium” value ([1]; CAL 102) was “+” and the “Growth in poison agar medium” value ([1]; CAL 103) was “+”. The “Growth in poison agar medium” value ([1]; CAL 104) was “+”, the “Growth in poison agar medium” value ([1]; CAL 105) was “+” and the “Growth in poison agar medium” value ([1]; CAL 106) was “+”. For the same compound, the “Growth in poison agar medium” value ([1]; CAL 107) was “+”, the “Growth in poison agar medium” value ([1]; CAL 108) was “+” and the “concentration upto which the mutants were resistant” value [2] was at most 60 µg/mL.

In the case of `CC[n+]1c(-c2ccccc2)c2cc(N)ccc2c2ccc(N)cc21` [ethidium bromide], the “concentration at which the strain is killed” value [3] is reported as 3 µg/mL.
